Measured values reported in patent US20230114728A1 (Venatorx Pharmaceuticals, Inc., priority 2019, published 2023).
≈ marks a conversion by molar mass, not a printed value.

Experiments:
[1] = biological target: T1, P. aeruginosa PBP3 (Pseudomonas aeruginosa, UniProt G3XD46); assay: Bocillin-FL fluorescence polarization competition binding assay, P. aeruginosa PBP3; settings: fluorescence polarization competition binding assay using Bocillin-FL
T1 construct: made in house
How it was run: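 Binding of boronic acid inhibitors to purified Pseudomonas aeruginosa (PA01) PBP3 was measured by fluorescence polarization competition with Bocillin-FL, a fluorescent penicillin V. Reactions of 80 μl contained 0.75 μM PBP3 and 0.1 μM Bocillin-FL in 50 mM Hepes (pH 8.0), 300 mM NaCl and 5% (v/v) glycerol, in black 384-well plates. FP (Excitation 490 nm, Emission 520 nm) was read for up to 60 minutes. EC50 is the concentration that halves PBP-bound Bocillin-FL.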

[2] = tested on: N. gonorrhoeae ATCC 49226; assay: Liquid broth MIC in Fastidious broth; type: cell-based; settings: Neisseria gonorrhoeae, ATCC49226; N. gonorrhoeae strain ATCC 49226; Fastidious broth; read-out: Minimum Inhibitory Concentration, N. gonorrhoeae ATCC 49226
How it was run: (§1)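 Colonies were swabbed from chocolate agar after 24 h growth and standardised by optical density at 600 nm. Compounds were serially diluted twofold in Fastidious broth, and bacteria added to give 5×10^5 CFU/mL. After about 24 h at 36 °C in 5% CO2, the lowest concentration allowing under 10% growth was taken as MIC.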

[3] = tested on: N. gonorrhoeae FA1090; assay: Liquid broth MIC in Fastidious broth; type: cell-based; settings: Neisseria gonorrhoeae; N. gonorrhoeae strain FA1090; Fastidious broth; read-out: Minimum Inhibitory Concentration, N. gonorrhoeae FA1090
How it was run: as §1

[4] = tested on: N. gonorrhoeae H041; assay: Liquid broth MIC in Fastidious broth; type: cell-based; settings: Neisseria gonorrhoeae, H041, read-out: Minimum Inhibitory Concentration, N. gonorrhoeae H041
How it was run: (§2)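 MIC = lowest concentration giving <10% growth relative to untreated wells, scored by eye after ~24 h at 36 °C, 5% CO2. Strains carry mosaic PBP2; inoculum 5×10^5 CFU/mL in Fastidious broth with 2-fold serial compound dilutions.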

[5] = tested on: N. gonorrhoeae WHO G; assay: Liquid broth MIC in Fastidious broth; type: cell-based; settings: Neisseria gonorrhoeae; N. gonorrhoeae strain WHO G; Fastidious broth; read-out: Minimum Inhibitory Concentration, N. gonorrhoeae WHO G
How it was run: as §1

[6] = tested on: N. gonorrhoeae WHO K; assay: Liquid broth MIC in Fastidious broth; type: cell-based; settings: Neisseria gonorrhoeae, read-out: Minimum Inhibitory Concentration, N. gonorrhoeae WHO K
How it was run: as §2

[7] = tested on: N. gonorrhoeae WHO L; assay: Liquid broth MIC in Fastidious broth; type: cell-based; settings: Neisseria gonorrhoeae; N. gonorrhoeae strain WHO L; Fastidious broth; read-out: Minimum Inhibitory Concentration, N. gonorrhoeae WHO L
How it was run: as §1

T1 sequence (G3XD46 whole entry): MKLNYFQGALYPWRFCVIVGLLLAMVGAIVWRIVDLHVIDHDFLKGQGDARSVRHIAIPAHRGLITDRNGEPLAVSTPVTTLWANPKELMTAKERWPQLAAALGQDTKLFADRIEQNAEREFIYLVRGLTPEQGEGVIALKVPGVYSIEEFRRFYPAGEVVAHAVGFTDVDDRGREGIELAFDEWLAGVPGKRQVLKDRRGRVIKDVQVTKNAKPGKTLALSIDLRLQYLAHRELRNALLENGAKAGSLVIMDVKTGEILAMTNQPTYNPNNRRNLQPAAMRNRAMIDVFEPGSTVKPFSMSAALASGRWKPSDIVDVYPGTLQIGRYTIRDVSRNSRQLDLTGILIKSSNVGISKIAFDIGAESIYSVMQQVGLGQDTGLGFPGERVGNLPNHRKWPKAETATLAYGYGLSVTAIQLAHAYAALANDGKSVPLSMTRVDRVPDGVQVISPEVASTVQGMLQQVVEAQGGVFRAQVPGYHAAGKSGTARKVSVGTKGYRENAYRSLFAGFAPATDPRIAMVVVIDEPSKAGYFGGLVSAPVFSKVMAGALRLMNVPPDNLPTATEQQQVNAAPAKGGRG

Compound: CCN1CCN(C(=O)NC(C(=O)N[C@H]2Cc3ccc(F)c(C(=O)O)c3OB2O)c2cc(F)c(O)c(O)c2Cl)C(=O)C1=O (stereo partly drawn) [Example 42, (3R)-3-(2-(2-chloro-5-fluoro-3,4-dihydroxyphenyl)-2-(4-ethyl-2,3-dioxopiperazine-1-carboxamido)acetamido)-7-fluoro-2-hydroxy-3,4-dihydro-2H-benzo[e][1,2]oxaborinine-8-carboxylic acid]
- P. aeruginosa PBP3 Potency [1]: D (D represents a potency <10 μM)
- MIC [2]: 16 to 32 µg/mL (≈ 26.2 to 52.4 µM)
- MIC [3]: 4 to 8 µg/mL (≈ 6.55 to 13.1 µM)
- MIC [4]: 16 to 32 µg/mL (≈ 26.2 to 52.4 µM)
- MIC [5]: 16 to 32 µg/mL (≈ 26.2 to 52.4 µM)
- MIC [6]: 16 to 32 µg/mL (≈ 26.2 to 52.4 µM)
- MIC [7]: > 64 µg/mL

Compound: NS(=O)(=O)NC(C(=O)N[C@H]1Cc2ccc(F)c(C(=O)O)c2OB1O)c1ncc(O)cc1F (stereo partly drawn) [Example 43, (3R)-7-fluoro-3-(2-(3-fluoro-5-hydroxypyridin-2-yl)-2-(sulfamoylamino)acetamido)-2-hydroxy-3,4-dihydro-2H-benzo[e][1,2]oxaborinine-8-carboxylic acid]
- P. aeruginosa PBP3 Potency [1]: C (C represents a potency between 10 and 30 μM)
- MIC [2]: > 64 µg/mL
- MIC [3]: > 64 µg/mL
- MIC [4]: > 64 µg/mL
- MIC [5]: > 64 µg/mL
- MIC [6]: > 64 µg/mL
- MIC [7]: > 64 µg/mL

Compound: NS(=O)(=O)NC(C(=O)N[C@H]1Cc2cccc(C(=O)O)c2OB1O)c1ccc(C(=O)O)c(F)c1 (stereo partly drawn) [Example 44, (3R)-3-(2-(4-carboxy-3-fluorophenyl)-2-(sulfamoylamino)acetamido)-2-hydroxy-3,4-dihydro-2H-benzo[e][1,2]oxaborinine-8-carboxylic acid]
- P. aeruginosa PBP3 Potency [1]: C (C represents a potency between 10 and 30 μM)
- MIC [2]: > 64 µg/mL
- MIC [3]: > 64 µg/mL
- MIC [4]: > 64 µg/mL
- MIC [5]: > 64 µg/mL
- MIC [6]: > 64 µg/mL
- MIC [7]: > 64 µg/mL

Compound: CCN1CCN(C(=O)NC(C(=O)N[C@H]2Cc3cccc(C(=O)O)c3OB2O)c2ccc(C(N)=O)c(O)c2)C(=O)C1=O (stereo partly drawn) [Example 45, (3R)-3-(2-(4-carbamoyl-3-hydroxyphenyl)-2-(4-ethyl-2,3-dioxopiperazine-1-carboxamido)acetamido)-2-hydroxy-3,4-dihydro-2H-benzo[e][1,2]oxaborinine-8-carboxylic acid]
- P. aeruginosa PBP3 Potency [1]: D (D represents a potency <10 μM)
- MIC [2]: 1 to 2 µg/mL (≈ 1.76 to 3.53 µM)
- MIC [3]: < 0.125 µg/mL
- MIC [4]: 16 to 32 µg/mL (≈ 28.2 to 56.4 µM)
- MIC [5]: 0.25 to 0.5 µg/mL (≈ 0.441 to 0.881 µM)
- MIC [6]: 16 to 32 µg/mL (≈ 28.2 to 56.4 µM)
- MIC [7]: 16 to 32 µg/mL (≈ 28.2 to 56.4 µM)

Compound: NC(=O)c1ccc(C(NC(=O)N2CCN(CCF)C(=O)C2=O)C(=O)N[C@H]2Cc3cccc(C(=O)O)c3OB2O)cc1O (stereo partly drawn) [Example 46, (3R)-3-(2-(4-carbamoyl-3-hydroxyphenyl)-2-(4-(2-fluoroethyl)-2,3-dioxopiperazine-1-carboxamido)acetamido)-2-hydroxy-3,4-dihydro-2H-benzo[e][1,2]oxaborinine-8-carboxylic acid]
- P. aeruginosa PBP3 Potency [1]: D (D represents a potency <10 μM)
- MIC [2]: 1 to 2 µg/mL (≈ 1.71 to 3.42 µM)
- MIC [3]: < 0.125 µg/mL
- MIC [4]: 16 to 32 µg/mL (≈ 27.3 to 54.7 µM)
- MIC [5]: 0.25 to 0.5 µg/mL (≈ 0.427 to 0.854 µM)
- MIC [6]: 16 to 32 µg/mL (≈ 27.3 to 54.7 µM)
- MIC [7]: 16 to 32 µg/mL (≈ 27.3 to 54.7 µM)

Compound: NCCCN1CCN(C(=O)NC(C(=O)N[C@H]2Cc3cccc(C(=O)O)c3OB2O)c2ccc(C(N)=O)c(O)c2)C(=O)C1=O (stereo partly drawn) [Example 47, (3R)-3-(2-(4-(3-aminopropyl)-2,3-dioxopiperazine-1-carboxamido)-2-(4-carbamoyl-3-hydroxyphenyl)acetamido)-2-hydroxy-3,4-dihydro-2H-benzo[e][1,2]oxaborinine-8-carboxylic acid]
- P. aeruginosa PBP3 Potency [1]: D (D represents a potency <10 μM)
- MIC [2]: 4 to 8 µg/mL (≈ 6.71 to 13.4 µM)
- MIC [3]: 0.25 to 0.5 µg/mL (≈ 0.419 to 0.838 µM)
- MIC [4]: > 64 µg/mL
- MIC [5]: 4 to 8 µg/mL (≈ 6.71 to 13.4 µM)
- MIC [6]: > 64 µg/mL
- MIC [7]: > 64 µg/mL

Compound: CCN1CCN(C(=O)NC(C(=O)N[C@H]2Cc3cccc(C(=O)O)c3OB2O)c2ccc(C(=O)O)c(OC)c2)C(=O)C1=O (stereo partly drawn) [Example 48, (3R)-3-(2-(4-carboxy-3-methoxyphenyl)-2-(4-ethyl-2,3-dioxopiperazine-1-carboxamido)acetamido)-2-hydroxy-3,4-dihydro-2H-benzo[e][1,2]oxaborinine-8-carboxylic acid]
- P. aeruginosa PBP3 Potency [1]: D (D represents a potency <10 μM)
- MIC [2]: 4 to 8 µg/mL (≈ 6.87 to 13.7 µM)
- MIC [3]: 0.25 to 0.5 µg/mL (≈ 0.429 to 0.859 µM)
- MIC [4]: 16 to 32 µg/mL (≈ 27.5 to 55 µM)
- MIC [5]: 1 to 2 µg/mL (≈ 1.72 to 3.43 µM)
- MIC [6]: 4 to 8 µg/mL (≈ 6.87 to 13.7 µM)
- MIC [7]: 16 to 32 µg/mL (≈ 27.5 to 55 µM)

Compound: O=C(Nc1ccccc1)NC(C(=O)N[C@H]1Cc2ccc(F)c(C(=O)O)c2OB1O)c1ncc(O)cc1F (stereo partly drawn) [Example 49, (3R)-7-fluoro-3-(2-(3-fluoro-5-hydroxypyridin-2-yl)-2-(3-phenylureido)acetamido)-2-hydroxy-3,4-dihydro-2H-benzo[e][1,2]oxaborinine-8-carboxylic acid]
- P. aeruginosa PBP3 Potency [1]: D (D represents a potency <10 μM)
- MIC [2]: 16 to 32 µg/mL (≈ 31.2 to 62.5 µM)
- MIC [3]: 4 to 8 µg/mL (≈ 7.81 to 15.6 µM)
- MIC [4]: > 64 µg/mL
- MIC [5]: 16 to 32 µg/mL (≈ 31.2 to 62.5 µM)
- MIC [6]: > 64 µg/mL
- MIC [7]: 16 to 32 µg/mL (≈ 31.2 to 62.5 µM)

Compound: CCN1CCN(C(=O)NC(C(=O)N[C@H]2Cc3cccc(C(=O)O)c3OB2O)c2ccc(N)c(F)c2)C(=O)C1=O (stereo partly drawn) [Example 50, (3R)-3-(2-(4-amino-3-fluorophenyl)-2-(4-ethyl-2,3-dioxopiperazine-1-carboxamido)acetamido)-2-hydroxy-3,4-dihydro-2H-benzo[e][1,2]oxaborinine-8-carboxylic acid]
- P. aeruginosa PBP3 Potency [1]: D (D represents a potency <10 μM)
- MIC [2]: 1 to 2 µg/mL (≈ 1.85 to 3.69 µM)
- MIC [3]: < 0.125 µg/mL
- MIC [4]: 16 to 32 µg/mL (≈ 29.6 to 59.1 µM)
- MIC [5]: 1 to 2 µg/mL (≈ 1.85 to 3.69 µM)
- MIC [6]: 16 to 32 µg/mL (≈ 29.6 to 59.1 µM)
- MIC [7]: 16 to 32 µg/mL (≈ 29.6 to 59.1 µM)

Compound: N=C(N)NCCN1CCN(C(=O)NC(C(=O)N[C@H]2Cc3ccc(F)c(C(=O)O)c3OB2O)c2ncc(O)cc2F)C(=O)C1=O (stereo partly drawn) [Example 51, (3R)-7-fluoro-3-(2-(3-fluoro-5-hydroxypyridin-2-yl)-2-(4-(2-guanidinoethyl)-2,3-dioxopiperazine-1-carboxamido)acetamido)-2-hydroxy-3,4-dihydro-2H-benzo[e][1,2]oxaborinine-8-carboxylic acid]
- P. aeruginosa PBP3 Potency [1]: D (D represents a potency <10 μM)
- MIC [2]: 4 to 8 µg/mL (≈ 6.47 to 12.9 µM)
- MIC [3]: 4 to 8 µg/mL (≈ 6.47 to 12.9 µM)
- MIC [4]: > 64 µg/mL
- MIC [5]: 4 to 8 µg/mL (≈ 6.47 to 12.9 µM)
- MIC [6]: > 64 µg/mL
- MIC [7]: > 64 µg/mL

Compound: N=C(N)NC(C(=O)N[C@H]1Cc2ccc(F)c(C(=O)O)c2OB1O)c1ncc(O)cc1F (stereo partly drawn) [Example 52, (3R)-7-fluoro-3-(2-(3-fluoro-5-hydroxypyridin-2-yl)-2-guanidinoacetamido)-2-hydroxy-3,4-dihydro-2H-benzo[e][1,2]oxaborinine-8-carboxylic acid]
- P. aeruginosa PBP3 Potency [1]: A (A represents a potency of >500 μM)
- MIC [2]: > 64 µg/mL
- MIC [3]: > 64 µg/mL
- MIC [4]: > 64 µg/mL
- MIC [5]: > 64 µg/mL
- MIC [6]: > 64 µg/mL
- MIC [7]: > 64 µg/mL

Compound: O=C(NC(C(=O)N[C@H]1Cc2ccc(F)c(C(=O)O)c2OB1O)c1ncc(O)cc1F)c1ccnc(F)c1 (stereo partly drawn) [Example 53, (3R)-7-fluoro-3-(2-(3-fluoro-5-hydroxypyridin-2-yl)-2-(2-fluoroisonicotinamido)acetamido)-2-hydroxy-3,4-dihydro-2H-benzo[e][1,2]oxaborinine-8-carboxylic acid]
- P. aeruginosa PBP3 Potency [1]: D (D represents a potency <10 μM)
- MIC [2]: > 64 µg/mL
- MIC [3]: 4 to 8 µg/mL (≈ 7.75 to 15.5 µM)
- MIC [4]: > 64 µg/mL
- MIC [5]: > 64 µg/mL
- MIC [6]: > 64 µg/mL
- MIC [7]: > 64 µg/mL
